The values below come from US20220133842A1 (priority 2019, published 2022).

In data set [1] the test system is Clostridium perfringens (ATCC 13124).
Data set [2] deals with Klebsiella pneumoniae (DSMZ 26371). It is filed as cell-based.
The test system of data set [3] is Caco-2 cells (ATCC HTB-37). As to the kind of experiment: cells. As to conditions: read-out: IC50 (concentration causing 50% cell death). The data set is classed as cell-based, human.
The test system of data set [4] is Aspergillus ochraceus (DSM 824). It is filed as cell-based.
The subject of data set [5] is Clostridium coccoides (DSM 935). Nature of the data set: microbe, parasite or virus in culture. The data set is classed as cell-based.
Data set [6] concerns Clostridium perfringens (ATCC 13124). It is filed as cell-based.
Data set [7] deals with Penicillium verrucosum (DSM 12639). It is filed as cell-based.
Data set [8] relates to Clostridium nexile (DSM 1787). As to the kind of experiment: microbe, parasite or virus in culture. The data set is classed as cell-based.
Data set [9] deals with Lactobacillus acidophilus (DSM 20079). Nature of the data set: microbe, parasite or virus in culture. The data set is classed as cell-based.
In data set [10] the test system is Bacillus cereus (DSM 31). The data set is classed as cell-based.
In data set [11] the test system is Clostridium perfringens strain (ATCC 13124) and clinical strains of Clostridium perfringens. The data set is classed as cell-based.
In data set [12] the test system is Clostridium difficile (DSM 1296). As to the kind of experiment: microbe, parasite or virus in culture. It is filed as cell-based.
The subject of data set [13] is Candida albicans (DSM 10697). The data set is classed as cell-based.
Data set [14] relates to Listeria monocytogenes (DSM 20600). It is filed as cell-based.
The test system of data set [15] is Clostridium propionicum (DSM 6251). As to the kind of experiment: microbe, parasite or virus in culture. The data set is classed as cell-based.
Data set [16] relates to Citrobacter farmeri (ATCC 51633). It is filed as cell-based.
Data set [17] has as its system Bacillus subtilis (DSM 347). The data set is classed as cell-based.
The test system of data set [18] is Lactococcus lactis (DSM 20481). It is filed as cell-based.
In data set [19] the test system is Clostridium botulinum (DSM 1985). As to the kind of experiment: microbe, parasite or virus in culture. The data set is classed as cell-based.
The subject of data set [20] is Staphylococcus aureus (ATCC 6538P). The data set is classed as cell-based.
The subject of data set [21] is Staphylococcus aureus MRSA USA300 (ATCC BAA-1717). The data set is classed as cell-based.
Data set [22] deals with T84 cells (ATCC CCL-248). Nature of the data set: cells. It is filed as cell-based, human. As to conditions: read-out: IC50 (concentration causing 50% cell death).
Data set [23] has as its system Salmonella enterica (CIP 80.39). It is filed as cell-based.
Data set [24] concerns Streptococcus pyogenes (DSM 20565). Nature of the data set: microbe, parasite or virus in culture. It is filed as cell-based.
The test system of data set [25] is Citrobacter rodentium (ATCC 51116). It is filed as cell-based.
Data set [26] has as its system Acinetobacter baumannii (CIP 110431). The data set is classed as cell-based.
Data set [27] has as its system IPEC-J2 cells. As to the kind of experiment: cells. The data set is classed as cell-based, pig. As to conditions: read-out: IC50 (concentration causing 50% cell death).
The test system of data set [28] is Enterococcus faecalis (DSM 13591). As to the kind of experiment: microbe, parasite or virus in culture. The data set is classed as cell-based.
For data set [29], the system named is Pseudomonas aeruginosa (CIP 107398). The data set is classed as cell-based.
In data set [30] the test system is Fusarium verticillioides (DSM 62264). The data set is classed as cell-based.
Data set [31] deals with Escherichia coli (ATCC 8739). It is filed as cell-based.
Data set [32] deals with Micrococcus luteus (DSM 20030). It is filed as cell-based.
The test system of data set [33] is Aspergillus niger (ATCC 9142). The data set is classed as cell-based.
Data set [34] has as its system Bacteroides thetaioataomicron (DSM 2255). As to the kind of experiment: microbe, parasite or virus in culture. It is filed as cell-based.
The subject of data set [35] is Streptococcus thermophilus (ATCC LMD-9). Nature of the data set: microbe, parasite or virus in culture. It is filed as cell-based.
Data set [36] deals with Helicobacter pylori (ATCC 43504). As to the kind of experiment: microbe, parasite or virus in culture. The data set is classed as cell-based.
Data set [37] has as its system Clostridium perfringens (ATCC 13124). The data set is classed as cell-based. The source holds these as a separate data set.
The subject of data set [38] is Propionibacterium acnes (ATCC 6919). As to the kind of experiment: microbe, parasite or virus in culture. The data set is classed as cell-based.
Data set [39] concerns Fusarium graminearum (DSM 1095). It is filed as cell-based.
Data set [40] concerns Arthrobacter gandavensis (DSM 2447). It is filed as cell-based.
Data set [41] deals with Klebsiella variicola (DSM 15968). The data set is classed as cell-based.
Data set [42] concerns Mycobacterium smegmatis (ATCC 700084). It is filed as cell-based.
In data set [43] the test system is Shigella flexneri (ATCC 12022). The data set is classed as cell-based.
Data set [44] deals with Clostridium perfringens (ATCC13124). It is filed as cell-based.
Data set [45] deals with Aspergillus flavus (DSM 1959). The data set is classed as cell-based.
The test system of data set [46] is human (Caco-2 and T84) and pig (IPEC-J2) intestinal cells.
Data set [47] deals with Fusarium oxysporum (DSM 62316). The data set is classed as cell-based.

Converted amounts (≈) assume the structure as drawn. Like-named read-outs stand apart in the source and are kept apart here.

Consider `CCCCCCCCCC(=O)N[C@@H](Cc1c[nH]c2ccccc12)C(=O)N[C@H](CC(N)=O)C(=O)N[C@@H](CC(=O)O)C(=O)N[C@@H]1C(=O)NCC(=O)N[C@@H](CCCN)C(=O)N[C@@H](CC(=O)O)C(=O)N[C@H](C)C(=O)N[C@@H](CC(=O)O)C(=O)NCC(=O)N[C@H](CO)C(=O)N[C@@H]([C@H](C)CC(=O)O)C(=O)N[C@@H](CC(=O)c2ccccc2N)C(=O)O[C@@H]1C` [Daptomycin], for which, in data set [1] (ATCC 13124), the MIC came out at 8 µM (≈ 13 µg/mL) and the “MIC (mg/L)” value stood at 12.96 mg/L (≈ 8 µM).

Consider Destruxin A, for which the MIC in data set [2], in data set [4], in data set [5], in [7], in data set [8] and in [9] was more than 100 µM each time. Also, the MIC in data set [10], in data set [12], in data set [13], in [14], in data set [15] and in data set [16] was more than 100 µM in each case. Moreover, the MIC in data set [17], in data set [18], in data set [19], in data set [20], in [21] and in data set [23] was more than 100 µM each time. The MIC in [24], in [25], in data set [26], in data set [28], in data set [29] and in data set [30] was more than 100 µM each time. The MIC in [31], in data set [32], in data set [33], in data set [34], in data set [35] and in data set [36] was more than 100 µM throughout. The MIC in data set [38], in [39], in data set [40], in data set [41], in data set [42] and in data set [43] was more than 100 µM throughout. Moreover, the MIC in data set [45] and in data set [47] was more than 100 µM in each case. The IC50 in data set [3], in data set [22] and in [27] was more than 100 µM each time. The “morphological phenotype (mechanism of action)” value in [6] is recorded as “hypercondensation of bacterial DNA”. Also, the “minimum bactericidal concentrations (BMC values)” value in [11] is recorded as “identical to the MIC values”. The “MIC (mg/L)” value in data set [1] is 0.86 mg/L. Further, the “permeabilisation of the bacterial membrane” value in data set [37] is “no permeabilisation”. In data set [44], the “change of MIC during exposure” value was “do not change or change only slightly”. The “toxicity to intestinal cells” value in data set [46] is recorded as “not toxic”.

On to `O=C(N[C@H](CO)[C@H](O)c1ccc([N+](=O)[O-])cc1)C(Cl)Cl` [Chloramphenicol], for which the “morphological phenotype (mechanism of action)” value in data set [6] (5 times MIC, 2 hours, FM4-64FX and DAPI labelling) is reported as “hypercondensation of bacterial DNA”.

Regarding Enniatin A1, the IC50 turned out to be 3.1 µM in [3], 4.5 µM in data set [22] and 5.1 µM in data set [27]. The MIC in data set [13] is 3.125 µM; in data set [17], 25 µM; in data set [20], 25 µM; in [28], 6.25 µM; in data set [29], more than 100 µM; in [1], 6.25 µM. This molecule also gave an MIC in data set [31] of more than 100 µM. Moreover, in data set [1], the “MIC (mg/L)” value worked out at 4.16 mg/L. Further, in [46], the “toxicity to intestinal cells” value is listed as “toxic”.

As for Bafilomycin B1, the MIC is more than 100 µM in data set [2]; 6.25 µM in data set [4]; 30 µM in [5]; 6.25 µM in [7]; 60 µM in [8]; 10 µM in data set [9]. The MIC in data set [10] was 25 µM; in data set [12], more than 100 µM; in [13], 100 µM; in [14], 50 µM; in data set [15], 25 µM; in [16] it was more than 100 µM. For the same molecule, the MIC was 20 µM in data set [17]; 50 µM in data set [18]; 30 µM in data set [19]; 10 µM in data set [20]; 20 µM in [21]; more than 100 µM in data set [23]. In addition, the MIC in data set [24] was 20 µM; in data set [25] it was more than 100 µM; in [26] it was more than 100 µM; in data set [28] it was 40 µM; in [29], more than 100 µM; in [30], 50 µM. For the same molecule, the MIC was 10 µM in data set [1]; more than 100 µM in [31]; 25 µM in data set [32]; 100 µM in data set [33]; more than 100 µM in data set [34]; 30 µM in [35]. Also, the MIC was more than 100 µM in [36]; 60 µM in [38]; 25 µM in data set [39]; 3 µM in [40]; more than 100 µM in data set [41]; more than 100 µM in data set [42]. Also, the MIC in [43] is more than 100 µM; in data set [45], 3.25 µM; in data set [47] it was 50 µM. The “MIC (mg/L)” value in data set [1] came out at 8.15 mg/L.
